Source: US10244759B2, “Use of forchlorfenuron for promoting plant growth” (KIM-C1 LLC, priority 2013, dated 2019)
“Also recorded” adds a separate entry of the source.

Tests used:
[1] = test system: cotton (G. hirsutum, FiberMax 9058); test: Cotton seedling spray, lateral root development and phytotoxicity (Example 2); type: in vivo, Gossypium hirsutum; conditions: seedlings sprayed 6 days after planting
Experimental: Commercial cotton seed (G. hirsutum, FiberMax 9058, Bayer CropScience) was planted in conetainers and grown for 6 days prior to spraying with a range of forchlorfenuron concentrations. The plants were grown an additional 5 days prior to washing out the roots. Initial concentrations (0, 5, 10, 15, 20, 25, 50, 100, 250, 500, 1000, and 2000 ppm) were evaluated.

[2] = test system: Broccoli plants (B. oleracea, var. Waltham 29); test: Broccoli root length, stem length and ratio thereof (Example 4); type: in vivo, Brassica oleracea; conditions: for Root Length AB Spray / Root/Stem Ratio AB Spray / Shoot Length AB Spray / Root Length A Spray / Root/Shoot Ratio A Spray / Shoot Length A Spray: percentage of the untreated level, 60 days after planting
Experimental: Broccoli plants (B. oleracea, var. […] The root length and stem length were measured 60 days after planting and the ratio of root length to stem length was calculated for every plant.

[3] = pH range; cited from earlier work
[4] = test system: Winter wheat; test: Winter wheat seed treatment, root weight (Table 3); type: in vivo; conditions: untreated 0.91
[5] = cited from earlier work
[6] = test system: cotton seeds (G. hirsutum, FiberMax 9058); test: Cotton seed soak, lateral root development (Example 1); type: in vivo, Gossypium hirsutum
From the text: Commercial cotton seeds (G. hirsutum, FiberMax 9058, Bayer CropScience) were submerged in tubs containing forchlorfenuron at concentrations of 0, 25, 50, 100, 250, 500, 1000, 4000 and 8000 ppm for 10 seconds. The seeds were then placed on paper towels on the lab bench and allowed to air dry. Six days after the seed soak, the seeds were planted in “conetainers” and placed in a greenhouse for one week. The soil was removed from the conetainer and the roots were washed by gently dipping the soil into a bucket of water. Roots were photographed and evaluated for lateral root development.

[7] = test system: Cotton plants (G. hirsutum, FiberMax 9180 B2F); test: Cotton yield enhancement under abiotic and biotic stresses, boll count (Example 3); type: in vivo, Gossypium hirsutum; conditions: for number bolls: at harvest; for % increase over control: number bolls
Experimental: Cotton plants grown from commercial cotton seeds (G. hirsutum, FiberMax 9180 […], Bayer CropScience) were treated with forchlorfenuron at various stages of growth. […] Control plants were not treated at any stage of growth. At the time of harvest, cotton bolls on all plants were counted, and the percentages of bolls that were open and closed were calculated.

[8] = test system: Winter wheat; test: Wheat root dry weight after spray (Example 5); type: in vivo; conditions: dry weight 50 days after planting, untreated 0.85
Experimental: (§1) Plants were sprayed with 0, 2.5, 5, or 7.5 ppm forchlorfenuron, at the cotyledon growth stage in the case of broccoli or at stage 1 in the case of wheat (treatment A), and optionally again with 5 ppm forchlorfenuron three days thereafter (treatment B). The dry weights of the plant roots were measured 50 days after planting.

[9] = test system: Broccoli; test: Broccoli root dry weight after spray (Example 5); type: in vivo; conditions: for root weight, Broccoli (AB spray) / root weight, Broccoli (A spray): dry weight 50 days after planting, untreated 0.69
Experimental: as §1

[10] = 2.5 ppm ai at cotyledon stage + 5 ppm 3 days after
[11] = 5 ppm ai at cotyledon stage + 5 ppm 3 days after
[12] = 7.5 ppm ai at cotyledon stage + 5 ppm 3 days after
[13] = treating G. hirsutum seeds or plants
[14] = 1st square spray, 5 ppm, Day 41

O=C(Nc1ccccc1)Nc1ccnc(Cl)c1 [forchlorfenuron, 1-(2-chloropyridin-4-yl)-3-phenylurea]
concentration with highest lateral root development ([1]; roots washed out 5 days later): 5 ppm
Severe phytotoxicity, application concentration ([1]; 0-2000 ppm tested): above 50 ppm
Root Length AB Spray [2, 10]: 104.39%
Root/Stem Ratio AB Spray [2, 10]: 138.67%
Shoot Length AB Spray [2, 10]: 79.98%
Root Length A Spray ([2]; 2.5 ppm ai at cotyledon stage): 91.86%
Root/Shoot Ratio A Spray ([2]; 2.5 ppm ai at cotyledon stage): 94.53%
Shoot Length A Spray ([2]; 2.5 ppm ai at cotyledon stage): 95.25%
Root Length AB Spray [2, 11]: 97.39%
Root/Stem Ratio AB Spray [2, 11]: 124.29%
Shoot Length AB Spray [2, 11]: 90.62%
Root Length A Spray ([2]; 5 ppm ai at cotyledon stage): 100.6%
Root/Shoot Ratio A Spray ([2]; 5 ppm ai at cotyledon stage): 137.48%
Shoot Length A Spray ([2]; 5 ppm ai at cotyledon stage): 80.12%
Root Length AB Spray [2, 12]: 106.69%
Root/Stem Ratio AB Spray [2, 12]: 119.08%
Shoot Length AB Spray [2, 12]: 90.13%
Root Length A Spray ([2]; 7.5 ppm ai at cotyledon stage): 97.46%
Root/Shoot Ratio A Spray ([2]; 7.5 ppm ai at cotyledon stage): 105.16%
Shoot Length A Spray ([2]; 7.5 ppm ai at cotyledon stage): 91.78%
increase in the ratio of root length to stem length above the untreated level ([2]; Treatment A alone at 5 ppm): > 20%
effect on ratio of root length to stem length ([2]; moderate concentrations): increases the ratio of root length to stem length
increase in the ratio of root length to stem length above the untreated level ([2]; treatment A at 2.5 ppm together with treatment B): > 20%
increase in the ratio of root length to stem length above the untreated level ([2]; treatment A at 5 ppm together with treatment B): > 20%
stability [3]: stable across a wide pH range
root weight, Winter Wheat Seed Treat. ([4]; 2.5 ppm ai): 0.97 grams
root weight, Winter Wheat Seed Treat. ([4]; 5 ppm ai): 0.81 grams
root weight, Winter Wheat Seed Treat. ([4]; 7.5 ppm ai): 0.86 grams
solubility in water [5]: weakly soluble in water; also recorded: poorly soluble in water
rooting patterns / lateral root lengths ([6]; seed treatment 250 ppm vs 0 ppm, eight plants per treatment (FIG. 1)): clear differences in rooting patterns; also recorded: increases in the lateral root lengths
concentration of optimal lateral root production ([6]; seeds submerged 10 seconds, 0-8000 ppm tested): 250 ppm
effect on lateral root development [6, 13]: increased lateral root development
% closed bolls [7, 14]: 56.7%
% open bolls [7, 14]: 43.3%
number bolls [7, 14]: 1096
% closed bolls ([7]; Seed soak, 250 ppm on Day 1): 66.9%
% open bolls ([7]; Seed soak, 250 ppm on Day 1): 33.1%
number bolls ([7]; Seed soak, 250 ppm on Day 1): 1212
number bolls ([7]; Seedling spray, 5 ppm at cotyledon-first leaf stage, Day 21): 1202
% closed bolls ([7]; Seedling spray, 5 ppm, Day 21): 70.5%
% open bolls ([7]; Seedling spray, 5 ppm, Day 21): 29.5%
% increase over control [7, 14]: 1%
% increase over control ([7]; Seed soak, 250 ppm on Day 1): 12%
% increase over control ([7]; Seedling spray, 5 ppm, Day 21): 11%
effect on number of healthy cotton bolls per plant [7, 13]: increased the number of healthy cotton bolls per plant
root weight, Winter wheat (AB spray) ([8]; 2.5 ppm ai at stage 1 + 5 ppm 3 days after): 0.76 grams
root weight, Winter wheat (A spray) ([8]; 2.5 ppm ai at stage 1): 0.91 grams
root weight, Winter wheat (AB spray) ([8]; 5 ppm ai at stage 1 + 5 ppm 3 days after): 0.71 grams
root weight, Winter wheat (A spray) ([8]; 5 ppm ai at stage 1): 0.69 grams
root weight, Winter wheat (AB spray) ([8]; 7.5 ppm ai at stage 1 + 5 ppm 3 days after): 0.87 grams
root weight, Winter wheat (A spray) ([8]; 7.5 ppm ai at stage 1): 0.72 grams
root weight, Broccoli (AB spray) [9, 10]: 0.67 grams
root weight, Broccoli (A spray) ([9]; 2.5 ppm ai at cotyledon stage): 0.68 grams
root weight, Broccoli (AB spray) [9, 11]: 0.79 grams
root weight, Broccoli (A spray) ([9]; 5 ppm ai at cotyledon stage): 0.8 grams
root weight, Broccoli (AB spray) [9, 12]: 0.79 grams
root weight, Broccoli (A spray) ([9]; 7.5 ppm ai at cotyledon stage): 0.76 grams
increase in root weight above the untreated level ([9]; treatment A at 5 ppm, absence of treatment B): > 10%
increase in root weight above the untreated level ([9]; treatment A at 5 ppm, presence of treatment B): > 10%
increase in root weight above the untreated level ([9]; treatment A at 7.5 ppm, absence of treatment B): > 10%
increase in root weight above the untreated level ([9]; treatment A at 7.5 ppm, presence of treatment B): > 10%
